In one data set the test system is superoxide anion. The data set is described as follows: Direct superoxide anion scavenging by EPR spectroscopy (DEPMPO spin trap), PMA-stimulated isolated human PMNs. The class given is cell-based. On the procedure: Leukocyte Isolation and Preparation. Human polymorphonuclear leukocytes (PMNs) were isolated from freshly sampled venous blood of a single volunteer by Percoll density gradient centrifugation as described previously. Briefly, each 10 mL of whole blood was mixed with 0.8 mL of 0.1 M EDTA and 25 mL of saline. The diluted blood was then layered over 9 mL of Percoll at a specific density of 1.080 g/mL. After centrifugation at 400×g for 20 min at 20° C., the plasma, mononuclear cell, and Percoll layers were removed. Erythrocytes were subsequently lysed by addition of 18 mL of ice-cold water for 30 s, followed by 2 mL of 10×PIPES buffer (25 mM PIPES, 110 mM NaCl, and 5 mM KCl, titrated to pH 7.4 with NaOH). Cells were then pelleted at 4° C., the supernatant was decanted, and the procedure was repeated. After the second hypotonic cell lysis, cells were washed twice with PAG buffer [PIPES buffer containing 0.003% human serum albumin (HSA) and 0.1% glucose]. Afterward, PMNs were counted by light microscopy on a hemocytometer. The isolation yielded PMNs with a purity of >95%. The final pellet was then suspended in PAG-CM buffer (PAG buffer with 1 mM CaCl2 and 1 mM MgCl2).
EPR Measurements. All EPR measurements were performed using a Bruker ER 300 EPR spectrometer operating at X-band with a TM110 cavity as previously described. The microwave frequency was measured with a Model 575 microwave counter (EIP Microwave, Inc., San Jose, Calif.). To measure superoxide anion (O2) generation from phorbol-ester (PMA)-stimulated PMNs, EPR spin-trapping studies were performed using the spin trap DEPMPO (Oxis, Portland, Oreg.) at 10 mM. 1×10^6 PMNs were stimulated with PMA (1 ng/mL) and loaded into capillary tubes for EPR measurements. To determine the radical scavenging ability of 3 and 9 in aqueous and ethanolic formulations, PMNs were pre-incubated for 5 minutes with test compound, followed by PMA stimulation.
Instrument settings used in the spin-trapping experiments were as follows: modulation amplitude, 0.32 G; time constant, 0.16 s; scan time, 60 s; modulation frequency, 100 kHz; microwave power, 20 milliwatts; and microwave frequency, 9.76 GHz. The samples were placed in a quartz EPR flat cell, and spectra were recorded. The component signals in the spectra were identified and quantified as reported previously.

The next data set has as its system CX43 protein. The data set can be described thus: CX43 protein expression in 10T1/2 cells by Western blotting (Example 1). The class given is cell-based, Mouse. Conditions: 4 days. On the procedure: Cell lines and culture conditions. Mouse embryonic fibroblast 10T1/2 cells were cultured in Eagle's basal medium with Earle's salts supplemented with 4% fetal calf serum (Atlanta Biologicals, Norcross, Ga.), 25 μg/ml gentamicin sulfate (Sigma, St. Louis, Mo.), and passaged by trypsin/EDTA (Gibco Invitrogen, Carlsbad, Calif.) and maintained at 37° C. in a 5% CO2 atmosphere. The cells were allowed to grow until a monolayer was formed. The confluent cells were treated 7 days after seeding, unless otherwise indicated. dAST was prepared in a formulation of 20% EtOH and sterile water (0.2% final EtOH ) to minimize supramolecular aggregation, and the final concentration of EtOH in culture medium was 0.2%. CTX was dissolved in THF and added to media. TTNPB was dissolved in acetone (Sigma, St. Louis, Mo.) and cultures received a final acetone concentration of 0.1%.
Analysis of CX43 protein expression. Expression of CX43 protein in 10T1/2 cells was assessed by Western blotting. 10T1/2 cell monolayers were treated with the indicated carotenoid derivatives or with retinoids (as a positive control for the modulation of CX43 expression) 7 days after seeding in 100 mm dishes (Fisher Scientific, Pittsburgh, Pa.). Fours days after the drug was added to the cells, the cells were harvested, total cellular protein was isolated and the total protein concentration thereof was determined using a commercially available Protein Assay Reagent kit (Pierce Chemical Co., Rockford, Ill.). 40 μg of total cellular protein was resolved on an SDS-PAGE gel, transferred to a nitrocellulose membrane, and analyzed by Western blotting using the NuPage Western blotting kit (Invitrogen, Carlsbad, Calif.). CX43 was detected using a rabbit polyclonal antibody (Zymed, San Francisco, Calif.) raised against a synthetic polypeptide corresponding to the C-terminal domain common to mouse, human and rat CX43. Equal protein loafing was verified by immunoblotting for GAPDH, the expression of which is unaffected by treatment with retinoids or carotenoids, using a rabbit polyclonal GAPDH antibody was also used (Zymed, San Francisco, Calif.). CX43 and GAPDH immunoreactive bands were visualized by chemiluminescence using an anti-rabbit HRP-conjugated secondary antibody (Pierce Chemical Co., Rockford, Ill.). Images were obtained by exposure to X-ray film as previously described and scanned for digital analysis on the Fluoro-S Imager (Bio-Rad, Richmond, Calif.).

Data set [1] deals with 10T1/2 cells. The data set can be described thus: Gap junctional communication, scrape-loading dye transfer assay. The class given is cell-based, Mouse. Conditions: 7 days. The method, then: Gap junctional communication assay. Junctional permeability was assayed by the scrape-loading dye transfer assay essentially as described in El-Fouly et al., 1987, which is incorporated herein by reference. Briefly, confluent cultures of 10T1/2 cells grown in 60 mm dishes were treated with the indicated compounds for 7 days. The treated cells were washed with Ca^+2-free phosphate-buffered saline (PBS). 1.5 ml of Lucifer Yellow CH (Sigma, St. Louis, Mo.) 0.2% in PBS was then added, and linear cuts were made on the monolayer using a surgical scalpel. The cultures were incubated for 2 minutes at 37° C. then rinsed thoroughly with PBS. The cultures were then fixed with 2 ml of 5% formaldehyde in PBS. Images were digitally quantitated by intensity thresholding using the SigmaScan software program (Jandel Scientific, San Rafael, Calif.).

Data set [2] relates to 10T1/2 cells. The class given is cell-based, Mouse. The note with it: for % Inhibition of MCA-induced transformation: 4 week period; for Foci/dish (mean Type II + Type III foci, 24 dishes): 4 week period after MCA. On the procedure:
Inhibition of MCA-induced neoplastic transformation in 10T1/2 cells. Cells were initiated with methylcholanthrene (MCA) […] (Sigma, St. Louis, Mo.) in acetone for 24 hours. Potential inhibitors of neoplastic transformation were added 7 days after removal of carcinogen as indicated and were renewed weekly by adding fresh medium supplemented with the appropriate drug for four weeks after removal of the carcinogen. The cultures were fixed and stained as described above. A total of 24 dishes of cells were used per treatment group. Type II and III foci were identified and then quantitated as described in Bertram et al., 1990, which is incorporated herein by reference.
Statistical analysis. Transformation data was analyzed by one-tailed, two-sample t-tests that incorporated unequal variances. The scrape-loading data was analyzed by paired t-tests.

The subject of another data set is CX43. The data set can be described thus: CX43 plaques by indirect immunofluorescence in 10T1/2 cells. The format is cell-based, Mouse. Conditions: 4 days; for CX43 immunoreactive plaques / gap junction assembly: 10^−8 M. On the procedure:
Analysis of CX43 protein by indirect immunofluorescence. Expression and assembly of CX43 into plaques was assessed by immunofluorescence staining essentially as described in Rogers et al, 1990, which is incorporated herein by reference. Briefly, confluent cultures of 10T1/2 cells were grown on Permanox plastic 4-chamber slides (Nalge Nunc International, Naperville, Ill.) and treated for 4 days as described above. Cells were fixed with −20° C. methanol overnight, washed in buffer, blocked in 1% bovine serum albumin (Sigma, St. Louis, Mo.) in PBS, incubated with the rabbit anti-CX43 antibody, and visualized with Alexa568 conjugated anti-rabbit secondary antibody (Molecular Probes, Eugene, Oreg.). Images were acquired with a Zeiss Axioplan microscope and a Roper Scientific cooled CCD camera.

Data set [3] is described as follows: Determination of aqueous solubility/dispersibility. The format is physicochemical. On the procedure:
Determination of aqueous solubility/dispersibility. 30.13 mg of 3 was added to 1 mL of USP-purified water. The sample was rotated for 2 hours, then centrifuged for 5 minutes. After centrifuging, solid was visible in the bottom of the tube. A 125-μL aliquot of the solution was then diluted to 25 mL. The sample was analyzed by UV/Vis spectroscopy at 436 nm, and the absorbance was compared to a standard curve compiled from 4 standards of known concentration. The concentration of the original supernatant was calculated to be 2.85 mg/mL and the absorptivity was 36.94 AU*mL/cm*mg. Slight error may have been introduced by the small size of the original aliquot.
Next, 30.80 mg of 9 was added to 1 mL of USP-purified water. The sample was rotated for 2 hours, then centrifuged for 5 minutes. After centrifuging, solid was visible in the bottom of the tube. A 125-μL aliquot of the solution was then diluted to 25 mL. The sample was analyzed by UViis spectroscopy at 411 nm, and the absorbance was compared to a standard curve compiled from 4 standards of known concentration. […] Slight error may have been introduced by the small size of the original aliquot.
Determination of aqueous solubility/dipsersibility of pAST. 23.70 mg of tetrasodium diphosphate astaxanthin was added to 1 ml of USP purified water. The mixture was stirred for 2 hours, and centrifuged for 5 minutes. The solution was diluted in water and analyzed by UV/vis spectroscopy at 480 nm and absorbance was compared to a standard curve compiled from 4 standards of known concentration.

The mark [4] stands for this setting: 0.1 mM in 40% EtOH, sodium salt.

Like-named read-outs stand apart in the source and are kept apart here.

With “3,3′-Diphosphoryloxy-β,ε-carotene sodium salt [Lutein Diphosphate Sodium Salt]”, the “Mean (% inhibition) of superoxide anion signal” value (shortened to “Mean (% inhibition)”) is recorded as 18% in the data set with superoxide anion (0.1 mM in 40% EtOH, listed as disodium diphosphate derivative of natural source lutein, sodium salt); 18.0% in the data set on superoxide anion (setting [4]); 0% with superoxide anion (0.1 mM in water, listed as disodium diphosphate derivative of natural source lutein, sodium salt); 9.3% with superoxide anion (1.0 mM in water); 72.3% in the data set with superoxide anion (3.0 mM in water); “more than 90%” with superoxide anion (5.0 mM in water, listed as disodium diphosphate derivative of natural source lutein, sodium salt). Also, the “Mean (% inhibition)” value with superoxide anion (5.0 mM in water, sodium salt) turned out to be 91.0%.
For `CC1=C(/C=C/C(C)=C/C=C/C(C)=C/C=C/C=C(C)/C=C/C=C(C)/C=C/C2=C(C)C(=O)[C@@H](O)CC2(C)C)C(C)(C)C[C@H](O)C1=O` [AST, astaxanthin, reference compound], the “CX43 protein induction versus solvent-treated controls” value was “no change” with CX43 protein (10^−5 M), “No change” with CX43 protein (10^−6 M) and “No change” in the data set on CX43 protein (10^−7 M). Besides, the figures for the GJIC dye transfer result with 10T1/2 cells [1] (10^−6 M) and with 10T1/2 cells [1] (10^−7 M) were “below that observed in untreated control cultures” and “roughly equivalent to that achieved in cultures treated with pAST”, respectively. Moreover, the neoplastic transformation entry with 10T1/2 cells [2] (10^−5 M for 4 weeks) was “strongly inhibited”. Further, the “% Inhibition of MCA-induced transformation” value in the data set with 10T1/2 cells [2] (10^−6 M) was 41%; with 10T1/2 cells [2] (10^−7 M), 39%; with 10T1/2 cells [2] (10^−8 M) it was 41%. Besides, the “Foci/dish (mean Type II + Type III foci, 24 dishes)” value was 0.96 foci/dish in the data set with 10T1/2 cells [2] (10^−6 M), 1.00 foci/dish in the data set with 10T1/2 cells [2] (10^−7 M) and 0.96 foci/dish in the data set with 10T1/2 cells [2] (10^−8 M). Besides, the foci/dish in the data set with 10T1/2 cells [2] (all concentrations tested) amounted to 0.98 foci/dish. Besides, in the data set with CX43 (10^−6 M), the “CX43 immunoreactive plaques at regions of cell/cell apposition” value is listed as “few immunoreactive plaques”. In addition, the “CX43 immunoreactive plaques / gap junction assembly” value with CX43 was “comparable to untreated cultures”. Moreover, the water dispersibility entry in data set [3] is “insoluble in water”.
For `CC1=C(/C=C/C(C)=C/C=C/C(C)=C/C=C/C=C(C)/C=C/C=C(C)/C=C/C2=C(C)C(=O)CCC2(C)C)C(C)(C)CCC1=O` [CTX, Canthaxanthin], in the data set on CX43 protein (10^−5 M), the “CX43 protein induction versus solvent-treated controls” value is listed as “≈ 7 fold”. The “increase of dye transfer” value with 10T1/2 cells [1] (10^−5 M) came to 4 fold. The CX43 immunoreactive plaques result in the data set with CX43 (10^−5 M) was “roughly equivalent to that achieved in cells treated with pAST at 10^−6 M”.
As for `C/C(=C\c1ccc(C(=O)O)cc1)c1ccc2c(c1)C(C)(C)CCC2(C)C` [TTNPB, tetrahydrotetramethylnaphalenylpropenyl benzoic acid], the “CX43 protein induction versus solvent-treated controls” value in the data set with CX43 protein (10^−8 M) is listed as “about 13 fold”. In the data set with 10T1/2 cells [1] (10^−8 M), the “increase of dye transfer” value stood at 6 fold. Besides, in the data set with CX43, the “CX43 immunoreactive plaques / gap junction assembly” value is listed as “extensive CX43 immunoreactive plaques”.
Regarding “β,ε-carotenyl 3,3′-disuccinate sodium salt [Lutein Disuccinate Sodium Salt]”, the “Mean (% inhibition)” value with superoxide anion (0.1 mM in 40% EtOH, listed as disodium disuccinate derivative of natural source lutein, sodium salt) is reported as “did not significantly increase scavenging over that provided by the EtOH vehicle alone”; in the data set on superoxide anion (setting [4]), 5.0%; with superoxide anion (0.1 mM in water), 0%; in the data set on superoxide anion (1.0 mM in water), 13.0%; with superoxide anion (3.0 mM in water), 61.7%; in the data set on superoxide anion (5.0 mM in water, listed as disodium disuccinate derivative of natural source lutein, sodium salt), approximately 75%. Besides, the “Mean (% inhibition)” value was 75% with superoxide anion (5.0 mM in water, listed as disuccinate lutein sodium salt, sodium salt) and 74.7% in the data set with superoxide anion (5.0 mM in water, sodium salt). In data set [3], this compound registered an aqueous solubility/dispersibility of 2850 µg/mL.

These data come from patent US20060276372A1, “Carotenoids, carotenoid analogs, or carotenoid derivatives for the treatment of proliferative disorders” (priority 2005, published 2006).
